From US12209078B2, “Crystalline forms of carbazole inhibitors of RhoGTPase for the treatment of disease” (MBQ Pharma, priority 2021, dated 2025) come the findings set out here.

Data set [1] is described as follows: Thermogravimetric analysis (TGA). The data set is classed as physicochemical. The note with it: heating to 400° C. under N2 at 5.0° C./min. The method, then: Thermogravimetric Analysis (TGA) Thermographs were recorded in a Thermogravimetric Analyzer (TGA) from TA Instruments Inc. (Q500) calibrated with calcium oxalate monohydrate (CaC2O4·H2O) standard to determine if MBQ-167 degrades before melting. Between 1.000-2.000 mg of the crystalline sample were equilibrated at 25° C. for 5 min before heating to 400° C. under N2 atmosphere (60 mL/min) at a rate of 5.0° C./min and a temperature accuracy of 0.1° C. Data was analyzed with the TA Universal Analysis 2000 software (version 4.5A).
Decomposition of the Form I polymorph (a) begins at about 184.7° C., while onset for decomposition of the Form II polymorph (b) begins at about 193.0° C.

A short description of data set [2]: Differential scanning calorimetry (DSC). The class given is physicochemical. The note with it: heating 5.0° C./min under N2. The method, then: Differential Scanning calorimetry (DSC) DSC was performed to determine the melting temperature (Tm) and enthalpy of fusion (ΔfusH) of MBQ-167. A differential scanning calorimeter (DSC) from TA Instruments Inc. (Q2000) equipped with a RCS40 single-stage refrigeration system was employed to carry out these measurements. The calibration of the DSC was conducted with an indium standard (Tm=156.6° C. and ΔfusH=28.54 J/g). Between 1.000-3.000 mg of the crystalline sample was weighed using a XP26 microbalance from Mettler Toledo (±0.002 mg) and placed on Tzero aluminum pans that were hermetically sealed. Samples were equilibrated at 25° C. for 5 min before heating to 250° C. at a rate of 5.0° C./min and then was cooled to 25° C. at a heating rate of 10° C./min under a N2 atmosphere (50 mL/min) and a temperature accuracy of 0.1° C.
A first endothermic peak, with an onset of 128.22° C. and centered at 129.82° C., corresponding to 0.4504 W/g, is followed by a second endothermic peak, with an onset of 152.81° C. and centered at 153.64° C., corresponding to 0.5809 W/g.
Overlay of the two DSC thermographs, shown in FIG. 3, makes apparent the source of the behavior of the Form II polymorph. The Form I polymorph undergoes a single endothermic phase transition to the melt. […]

`CCn1c2ccccc2c2cc(-n3nncc3-c3ccccc3)ccc21` [MBQ-167, 9-ethyl-3-(5-phenyl-1H-1,2,3-triazol-1-yl)-9H-carbazole]: in data set [1], the “decomposition relative to melting (TGA)” value is recorded as “starts to decompose after the melting temperature”.

On to `CCn1c2ccccc2c2cc(-n3nncc3-c3ccccc3)ccc21` [Form II polymorph, 9-Ethyl-3-(5-phenyl-1H-1,2,3-triazol-1-yl)-9H-carbazole], for which, in data set [2], the “centre of first endothermic peak (phase transition to the more stable Form I polymorph)” value came to 129.82 °C and the “onset of first endothermic peak (phase transition to the more stable Form I polymorph)” value turned out to be 128.22 °C. The “onset of decomposition (TGA)” value in data set [1] is “about 193.0 °C”.

As to `CCn1c2ccccc2c2cc(-n3nncc3-c3ccccc3)ccc21` [Form I polymorph, 9-Ethyl-3-(5-phenyl-1H-1,2,3-triazol-1-yl)-9H-carbazole], in data set [1], the “onset of decomposition (TGA)” value is “about 184.7 °C”.
